Experimental data reported in ChEMBL document CHEMBL4270663, “6-Benzhydryl-4-amino-quinolin-2-ones as Potent Cannabinoid Type 1 (CB1) Receptor Inverse Agonists and Chemical Modifications for Peripheral Selectivity” (J Med Chem, 2018).
Calls of active or inactive are those of the source. No cut-off for these calls is given here.

Key:
[1] = Ratio of drug level in brain to plasma of diet-induced obese C57BL/6J mouse model at 1 mg/kg, po administered as daily dose measured at 2 hrs post last dose on day 23; assay type: ADME, organism-based; conditions: read-out: BPR
Mus musculus [2] = assay: In vivo receptor occupancy at CB1 receptor in brain of diet induced obese C57BL/6J mouse model at 30 mg/kg, po administered as daily dose for 5 days measured 10 mins post last dose in presence of [3H]-CP-55940 relative to control; assay type: functional
[3] = Cmax in C57BL/6J mouse at 20 mg/kg, po administered via gavage by LC-MS/MS analysis; assay type: ADME, organism-based; set-up: dose 20 mg/kg, route oral; conditions: in vivo
[4] = Drug uptake in brain of wild type CF-1 mouse at 20 mg/kg, po measured at 2 hrs post last dose on day 2; assay type: ADME, organism-based; conditions: in vivo
[5] = Metabolic stability in rat liver microsomes assessed as parent compound remaining at 1 uM after 10 mins in presence of NADPH; assay type: ADME, microsome; conditions: read-out: Stability
[6] = Oral bioavailability in C57BL/6J mouse at 20 mg/kg administered via gavage by LC-MS/MS analysis; assay type: ADME, organism-based; conditions: in vivo
[7] = Drug uptake in C57BL/6J mouse brain at 20 mg/kg, po measured after 1 hr; assay type: ADME, organism-based; conditions: in vivo
[8] = Drug uptake in brain of MDR1a knockout CF-1 mouse at 20 mg/kg, po measured at 2 hrs post last dose on day 2; assay type: ADME, organism-based; conditions: in vivo
Mus musculus [9] = assay: Antiobesity activity in diet induced obese C57BL/6J mouse model assessed as decrease in food intake at 3 mg/kg, po administered as daily dose measured every day for 5 days and continuing every other day till day 8 and 15; assay type: functional, organism-based
[10] = Drug uptake in plasma of diet-induced obese C57BL/6J mouse model at 10 mg/kg, po administered as daily dose measured at 2 hrs post last dose on day 1; assay type: ADME, organism-based
Cytochrome P450 1A2 = molecular target: T1, Cytochrome P450 1A2 (Homo sapiens, UniProt P05177); assay: Inhibition of CYP1A2 in human liver microsomes using phenacetin as substrate after 10 to 30 mins by LC/MS analysis; assay type: ADME
T1 sequence (P05177 whole entry): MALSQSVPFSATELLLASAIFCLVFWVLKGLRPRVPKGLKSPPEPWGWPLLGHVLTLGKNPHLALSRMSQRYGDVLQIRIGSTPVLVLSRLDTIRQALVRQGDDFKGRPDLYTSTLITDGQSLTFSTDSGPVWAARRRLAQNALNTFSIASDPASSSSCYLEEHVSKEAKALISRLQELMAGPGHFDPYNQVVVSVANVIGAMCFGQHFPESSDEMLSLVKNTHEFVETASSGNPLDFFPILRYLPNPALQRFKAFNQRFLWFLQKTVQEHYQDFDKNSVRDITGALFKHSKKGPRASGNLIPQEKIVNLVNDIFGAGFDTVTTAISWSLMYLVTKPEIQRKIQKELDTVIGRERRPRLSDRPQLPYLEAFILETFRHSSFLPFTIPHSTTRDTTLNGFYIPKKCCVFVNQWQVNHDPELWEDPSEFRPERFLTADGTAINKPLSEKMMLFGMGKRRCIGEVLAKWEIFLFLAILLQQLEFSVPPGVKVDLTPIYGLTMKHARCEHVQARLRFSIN

[11] = Drug uptake in brain of diet-induced obese C57BL/6J mouse model at 1 mg/kg, po administered as daily dose measured at 2 hrs post last dose on day 2; assay type: ADME, organism-based; conditions: in vivo
Cannabinoid receptor 2 = Cannabinoid receptor 2 (Homo sapiens, UniProt P34972); assay: Inverse agonist activity at human CB2 receptor expressed in HEK293 cells assessed as […] cAMP accumulation after 30 mins by HTRF assay; assay type: functional, cell-based
Mus musculus [12] = assay: Antiobesity activity in diet induced obese C57BL/6J mouse model assessed as decrease in food intake at 30 mg/kg administered as daily dose measured every day for 5 days; assay type: functional, organism-based
[13] = Half life in C57BL/6J mouse at 20 mg/kg, po administered via gavage by LC-MS/MS analysis; assay type: ADME, organism-based; conditions: in vivo
[14] = Drug uptake in plasma of diet-induced obese C57BL/6J mouse model at 30 mg/kg administered as daily dose measured at 2 hrs post last dose on day 5; assay type: ADME, organism-based
[15] = Metabolic stability in mouse liver microsomes assessed as parent compound remaining at 1 uM after 10 mins in presence of NADPH; assay type: ADME, microsome; conditions: read-out: Stability
[16] = Metabolic stability in human liver microsomes assessed as parent compound remaining at 1 uM after 10 mins in presence of NADPH; assay type: ADME, microsome; conditions: read-out: Stability
Cannabinoid receptor 1 = Cannabinoid receptor 1 (Homo sapiens, UniProt P21554); assay: Inverse agonist activity at human CB1 receptor expressed in HEK293 cells assessed as inhibition of forskolin-induced cAMP accumulation after 30 mins by HTRF assay; assay type: functional, cell-based
[17] = Drug uptake in plasma of diet-induced obese C57BL/6J mouse model at 3 mg/kg, po administered as daily dose measured at 2 hrs post last dose on day 1; assay type: ADME, organism-based
Cytochrome P450 2C9 = Cytochrome P450 2C9 (Homo sapiens, UniProt P11712); assay: Inhibition of CYP2C9 in human liver microsomes using tolbutamide as substrate after 10 to 30 mins by LC/MS analysis; assay type: ADME
[18] = Ratio of drug level in brain to plasma of MDR1a knockout CF-1 mouse at 20 mg/kg, po; assay type: ADME, organism-based; conditions: read-out: BPR
[19] = Drug uptake in C57BL/6J mouse brain at 20 mg/kg, po measured after 4 hrs; assay type: ADME, organism-based; conditions: in vivo
[20] = Ratio of drug level in C57BL/6J mouse brain to plasma at 20 mg/kg, po measured after 1 hr; assay type: ADME, organism-based; conditions: read-out: BPR
[21] = Protein binding in plasma (unknown origin); assay type: ADME, cell-free; conditions: unidentified, read-out: PPB
[22] = Ratio of drug level in brain to plasma of diet-induced obese C57BL/6J mouse model at 30 mg/kg administered as daily dose measured at 2 hrs post last dose on day 5; assay type: ADME, organism-based; conditions: read-out: BPR

Chain of Cannabinoid receptor 1 (P21554 whole entry): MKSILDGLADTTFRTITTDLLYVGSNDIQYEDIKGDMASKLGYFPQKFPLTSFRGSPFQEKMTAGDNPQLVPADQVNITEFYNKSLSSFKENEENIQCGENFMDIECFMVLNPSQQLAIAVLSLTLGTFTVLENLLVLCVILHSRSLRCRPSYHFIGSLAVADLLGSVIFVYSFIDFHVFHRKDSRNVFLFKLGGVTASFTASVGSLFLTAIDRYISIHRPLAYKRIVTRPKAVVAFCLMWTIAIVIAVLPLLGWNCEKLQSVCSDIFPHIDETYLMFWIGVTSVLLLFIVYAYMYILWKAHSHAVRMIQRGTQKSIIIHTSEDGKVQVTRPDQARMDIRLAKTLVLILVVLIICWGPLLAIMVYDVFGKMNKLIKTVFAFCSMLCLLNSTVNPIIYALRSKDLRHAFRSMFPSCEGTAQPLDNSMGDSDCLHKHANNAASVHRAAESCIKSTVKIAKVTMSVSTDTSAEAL
Chain of Cannabinoid receptor 2 (P34972 whole entry): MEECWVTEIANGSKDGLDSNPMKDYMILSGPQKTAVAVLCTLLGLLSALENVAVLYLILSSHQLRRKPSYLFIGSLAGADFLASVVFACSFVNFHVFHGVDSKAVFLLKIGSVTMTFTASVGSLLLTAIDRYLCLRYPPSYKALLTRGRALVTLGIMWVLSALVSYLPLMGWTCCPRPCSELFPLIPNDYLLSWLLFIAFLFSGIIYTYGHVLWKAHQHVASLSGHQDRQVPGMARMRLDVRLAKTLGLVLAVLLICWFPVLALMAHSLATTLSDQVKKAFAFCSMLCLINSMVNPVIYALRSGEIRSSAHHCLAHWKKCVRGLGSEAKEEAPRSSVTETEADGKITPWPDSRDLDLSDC
Chain of Cytochrome P450 2C9 (P11712 whole entry): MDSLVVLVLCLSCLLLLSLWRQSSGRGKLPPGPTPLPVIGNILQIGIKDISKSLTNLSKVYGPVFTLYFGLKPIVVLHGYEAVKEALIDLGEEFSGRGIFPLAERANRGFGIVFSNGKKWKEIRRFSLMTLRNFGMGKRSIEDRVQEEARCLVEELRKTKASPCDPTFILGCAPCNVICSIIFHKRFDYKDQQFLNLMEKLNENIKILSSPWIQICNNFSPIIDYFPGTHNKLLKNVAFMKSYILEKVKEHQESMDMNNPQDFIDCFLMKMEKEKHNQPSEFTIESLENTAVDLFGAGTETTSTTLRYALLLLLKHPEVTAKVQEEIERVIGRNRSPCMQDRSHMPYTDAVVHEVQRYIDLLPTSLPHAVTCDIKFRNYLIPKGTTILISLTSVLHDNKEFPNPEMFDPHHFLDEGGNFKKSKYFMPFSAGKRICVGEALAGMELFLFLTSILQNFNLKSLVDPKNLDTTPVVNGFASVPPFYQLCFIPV

O=c1cc(NC2CCN(S(=O)(=O)C(F)(F)F)CC2)c2cc(C(c3ccc(Cl)cc3)c3ccc(Cl)cc3)ccc2[nH]1
Kp at 2 h [1]: 0.072 | Occ (Mus musculus [2]): 71.6% | Cmax [3]: 3.7 µM | Drug uptake [4]: 0.104 nmol/g | remaining at 10 min, 1 µM [5]: 100% | bioavailability [6]: 13% | Drug uptake [7]: 0.012 nmol/g | Drug uptake [8]: 3.49 nmol/g | Activity (Mus musculus [9]): Active | concentration at 2 h [10]: 4.08 µM | IC50 (Cytochrome P450 1A2): > 10 µM | Drug uptake [11]: < 4 nmol/g | EC50 (Cannabinoid receptor 2): > 10 µM | Activity (Mus musculus [12]): Active | half-life [13]: 7.26 h | concentration at 2 h [14]: 18.5 µM | remaining at 10 min, 1 µM [15]: 100% | remaining at 10 min, 1 µM [16]: 100% | EC50 (Cannabinoid receptor 1): 0.0082 to 0.0083 µM | concentration at 2 h [17]: 1.24 µM | IC50 (Cytochrome P450 2C9): > 10 µM | Kp [18]: 0.72 | Drug uptake [19]: 0.019 nmol/g | Kp at 1 h [20]: 0.0073 | fraction unbound [21]: 0.0001 | Kp at 2 h [22]: 0.024
